Test results taken from EP1078630A1, “Use of sigma receptor agonists for the treatment of depression” (WARNER-LAMBERT COMPANY, priority 1999, dated 2001).

Assays:
Male Swiss OF1 mice = assay: Forced swim test in non-operated Swiss mice (duration of immobility); assay type: in vivo
Method: (§1) Male Swiss OF1 mice (Breeding center of the Faculty of Pharmacy, Montpellier, France), aged 5-6 weeks and weighing 30 ± 2 g are used throughout the study. Animals are housed in plastic cages in groups. They have free access to laboratory chow and water, except during behavioral experiments, and they are kept in a regulated environment (23 ± 1°C, 40-60% humidity) under a 12-hr light/dark cycle (light on at 7:00 a.m.). Experiments are carried out between 9:00 a.m. and 6:00 p.m., in a soundproof and air-regulated experimental room, to which mice are habituated at least 30 min before each experiment.
(§2) PROG and finasteride are suspended in sesame oil; other drugs are solubilized in distilled water or saline solution. Drugs are injected subcutaneously (s.c.) or intraperitoneally (i.p.), in a volume of 100 µl per 20 g of body weight.
(§3) Each mouse is placed individually in a glass cylinder (diameter 12 cm, height 24 cm) filled with water at a height of 12 cm. Water temperature is maintained at 22-23°C. The animal is forced to swim for 15 min on the first day. Animals are then allowed to return to their home cage. On the second day, each mouse is placed again into the water and forced to swim for 6 min. The session is videotaped and the duration of immobility during the last 5 min is measured. The mouse is considered as immobile when it stops struggling and moves only to remain floating in the water, keeping its head above water. Drugs are administered 30 min before the session on the second day. Finasteride is administered twice, 14 and 2 hr before the session on day 2.
(§4) Results are expressed as means ± S.E.M. Data are analyzed using the Dunnett's multiple comparisons test after an analyzis of variance (ANOVA, F values). The criterion for statistical significance is P < 0.05.

[1] = literature (Ukai et al. 1998, Matsuno et al. 1996, Tottori et al. 1997, Kinsora et al. 1998); cited from earlier work
AdX/CX Swiss mice = assay: Forced swim test in adrenalectomized/castrated (AdX/CX) Swiss mice; assay type: in vivo; details: for effect in AdX/CX animals as compared to non-operated mice: comparison of AdX/CX with non-operated animals; for influence of removal of circulating steroids on the antidepressant effect: AdX/CX versus non-operated mice
Method: as §1, §2, §3
About one week after habituation to the animal facilities, animals are anaesthetized with sodium pentobarbital 2%, 100 µl/30 g body weight i.p. Both adrenal glands are removed, through incisions in the back of the animal, just below the breast ribs. The skin is sutured. Then, both testes are ligatured and cut, through an incision in the scrotum. Animals received an injection of gentamycine 10 mg/kg i.p. and recovered within few hours from surgery. After surgery, drinking tap water is replaced by saccharose 1%, NaCI 0.9% solution. Animals are used for behavioral experiments six days after surgery.
as §4

C=CCN1CCC2(C)c3cc(O)ccc3CC1C2C (single isomer, unassigned; (+)) [(+)-SKF-10,047]
immobility time (Male Swiss OF1 mice; 30 mg/kg, Fig. 1B): decreases the immobility time | antidepressant effects in animal models [1]: reduce the immobility time in the forced swim test or are active in the tail suspension test

CC(C)=CCN1CCC2(C)c3cc(O)ccc3CC1C2C (single isomer, unassigned; (+)) [(+)-pentazocine]
antidepressant effects in animal models [1]: reduce the immobility time in the forced swim test or are active in the tail suspension test

C[C@]12CC[C@H](OS(=O)(=O)O)CC1=CC[C@@H]1[C@@H]2CC[C@]2(C)C(=O)CC[C@@H]12 [DHEAS]
immobility time (Male Swiss OF1 mice; 10 mg/kg dose (5-60 mg/kg range tested), Fig. 3A): slightly but significantly shortens the immobility time | immobility time (Male Swiss OF1 mice; dosages lower or higher than 10 mg/kg within 5-60 mg/kg, Fig. 3A): devoid of effect | immobility time (AdX/CX Swiss mice; AdX/CX animals, 5-60 mg/kg dose-range, Fig. 7): significant diminution of the immobility time at all the doses examined | effect in AdX/CX animals as compared to non-operated mice (AdX/CX Swiss mice): in a more efficient manner as compared to non-operated animals

Cc1ccccc1NC(=N)Nc1ccccc1C [DTG]
antidepressant effects in animal models [1]: reduce the immobility time in the forced swim test or are active in the tail suspension test

CC(C)(C)NC(=O)[C@H]1CC[C@H]2[C@@H]3CC[C@H]4NC(=O)C=C[C@]4(C)[C@H]3CC[C@]12C [Finasteride, finasteride]
immobility time (AdX/CX Swiss mice; finasteride pretreatment (25 mg/kg s.c., 14 and 2 hr before session) in vehicle-treated AdX/CX mice, Fig. 5): does not affect the immobility time | effect on the diminution of immobility time induced by igmesine (AdX/CX Swiss mice; finasteride pretreatment (25 mg/kg s.c., 14 and 2 hr before), igmesine 60 mg/kg, AdX/CX mice, Fig. 5): significantly alters the diminution induced by igmesine

CCCN(CCC)CCc1ccc(OC)c(OCCc2ccccc2)c1 [NE-100]
immobility time (Male Swiss OF1 mice; 1-10 mg/kg i.p. dose-range, given alone, Fig. 1C): does not affect the immobility time by itself | antagonism of the reduction of immobility time induced by igmesine (Male Swiss OF1 mice; NE-100 10 mg/kg pre-administered i.p. 15 min before igmesine, Fig. 1D): completely antagonizes the reduction of immobility time induced by igmesine | antagonism of the DHEAS-induced diminution of immobility time (Male Swiss OF1 mice; NE-100 i.p. 15 min before DHEAS, Fig. 4B): prevents the DHEAS-induced diminution of immobility time | antagonism of the antidepressant effect of DHEAS (AdX/CX Swiss mice; NE-100 i.p. 15 min before DHEAS, AdX/CX mice, Fig. 8B): fully antagonizes | antagonism of the antidepressant effect of igmesine (AdX/CX Swiss mice; NE-100 i.p. 15 min before igmesine, AdX/CX mice, Fig. 8A): fully antagonizes

COc1cccc2c1CCC(=O)N2CCCN1CCN(c2cccc(Cl)c2)CC1 [OPC14523]
antidepressant effects in animal models [1]: reduce the immobility time in the forced swim test or are active in the tail suspension test

CC(=O)[C@H]1CC[C@H]2[C@@H]3CC=C4C[C@@H](OS(=O)(=O)O)CC[C@]4(C)[C@H]3CC[C@]12C [PREGS]
immobility time (Male Swiss OF1 mice; 5-40 mg/kg dose range, Fig. 3B): fails to affect the immobility time

CC(=O)[C@H]1CC[C@H]2[C@@H]3CCC4=CC(=O)CC[C@]4(C)[C@H]3CC[C@]12C [PROG, progesterone]
immobility time (Male Swiss OF1 mice; 5-60 mg/kg dose range, given alone, Fig. 3C): does not affect the immobility time by itself | antagonism of the DHEAS effect on immobility time (Male Swiss OF1 mice; PROG 20-60 mg/kg pre-administered before DHEAS 10 mg/kg, Fig. 3D): significant antagonism of its effect | antagonism of the igmesine-induced reduction of immobility (Male Swiss OF1 mice; PROG pre-administered i.p. 15 min before igmesine, Fig. 4A): fully blocks the igmesine-induced reduction of immobility

COc1ccc(CCN2CCN(CCCc3ccccc3)CC2)cc1OC [SA4503]
antidepressant effects in animal models [1]: reduce the immobility time in the forced swim test or are active in the tail suspension test

CNCCCN1c2ccccc2CCc2ccccc21 [desipramine]
immobility time (Male Swiss OF1 mice; 30 and 60 mg/kg i.p., Fig. 2): shortened the immobility time | influence of removal of circulating steroids on the antidepressant effect (AdX/CX Swiss mice): failed to be affected by the removal of circulating steroids

CNCCC(Oc1ccc(C(F)(F)F)cc1)c1ccccc1 (stereo not drawn) [fluoxetine]
immobility time (Male Swiss OF1 mice; 30 and 60 mg/kg i.p., Fig. 2): shortened the immobility time | antidepressant effect in the forced swim test (AdX/CX Swiss mice; AdX/CX Swiss mice, i.p. 30 min before session on day 2, Fig. 6): antidepressant effect | influence of removal of circulating steroids on the antidepressant effect (AdX/CX Swiss mice): failed to be affected by the removal of circulating steroids

CCC(C/C=C/c1ccccc1)(c1ccccc1)N(C)CC1CC1.Cl (stereo not drawn) [igmesine, (E)-(+)-N-(cyclopropylmethyl)-α-ethyl-N-methyl-α-(3-phenyl-2-propenyl)benzenemethanamine hydrochloride]
immobility time (Male Swiss OF1 mice; 60 mg/kg i.p., 30 min before session on day 2, Fig. 1A): significantly shortens the immobility time | immobility time (AdX/CX Swiss mice; AdX/CX animals, 20 and 60 mg/kg, dose-dependent, Fig. 5): shortens significantly the immobility time | effect in AdX/CX animals as compared to non-operated mice (AdX/CX Swiss mice): enhanced | antidepressant effects in animal models [1]: reduce the immobility time in the forced swim test or are active in the tail suspension test
